structure (smiles),measurement,setting,value
CC(C)(C)[C@H](O)[C@H](Cc1ccc(Cl)cc1)n1cncn1 (racemic),solubility (mole fraction),"in 1,4-dioxane, 278.15 K",0.0156
same,solubility (mole fraction),"in 1,4-dioxane, 280.65 K",0.0168
same,solubility (mole fraction),"in 1,4-dioxane, 283.15 K",0.0183
same,solubility (mole fraction),"in 1,4-dioxane, 285.65 K",0.0203
same,solubility (mole fraction),"in 1,4-dioxane, 288.15 K",0.0223
same,solubility (mole fraction),"in 1,4-dioxane, 290.65 K",0.0248
same,solubility (mole fraction),"in 1,4-dioxane, 293.15 K",0.0271
same,solubility (mole fraction),"in 1,4-dioxane, 295.65 K",0.0296
same,solubility (mole fraction),"in 1,4-dioxane, 298.15 K",0.0324
same,solubility (mole fraction),"in 1,4-dioxane, 300.65 K",0.0351
same,solubility (mole fraction),"in 1,4-dioxane, 303.15 K",0.0381
same,solubility (mole fraction),"in 1,4-dioxane, 305.65 K",0.0412
same,solubility (mole fraction),"in 1,4-dioxane, 308.15 K",0.044
same,solubility (mole fraction),"in 1,4-dioxane, 310.65 K",0.0475
same,solubility (mole fraction),"in 1,4-dioxane, 313.15 K",0.0512
same,solubility (mole fraction),"in 1,4-dioxane, 315.65 K",0.0551
same,solubility (mole fraction),"in 1,4-dioxane, 318.15 K",0.0593
same,solubility (mole fraction),"in acetone, 278.15 K",0.0135
same,solubility (mole fraction),"in acetone, 280.65 K",0.0145
same,solubility (mole fraction),"in acetone, 283.15 K",0.0155
same,solubility (mole fraction),"in acetone, 285.65 K",0.0167
same,solubility (mole fraction),"in acetone, 288.15 K",0.0181
same,solubility (mole fraction),"in acetone, 290.65 K",0.0194
same,solubility (mole fraction),"in acetone, 293.15 K",0.0209
same,solubility (mole fraction),"in acetone, 295.65 K",0.0223
same,solubility (mole fraction),"in acetone, 298.15 K",0.0239
same,solubility (mole fraction),"in acetone, 300.65 K",0.0253
same,solubility (mole fraction),"in acetone, 303.15 K",0.0269
same,solubility (mole fraction),"in acetone, 305.65 K",0.0284
same,solubility (mole fraction),"in acetone, 308.15 K",0.0301
same,solubility (mole fraction),"in acetone, 310.65 K",0.0317
same,solubility (mole fraction),"in acetone, 313.15 K",0.0335
same,solubility (mole fraction),"in acetone, 315.65 K",0.0353
same,solubility (mole fraction),"in acetone, 318.15 K",0.0372
same,solubility (mole fraction),"in acetonitrile, 278.15 K",0.00239
same,solubility (mole fraction),"in acetonitrile, 280.65 K",0.00267
same,solubility (mole fraction),"in acetonitrile, 283.15 K",0.00295
same,solubility (mole fraction),"in acetonitrile, 285.65 K",0.00331
same,solubility (mole fraction),"in acetonitrile, 288.15 K",0.00366
same,solubility (mole fraction),"in acetonitrile, 290.65 K",0.00405
same,solubility (mole fraction),"in acetonitrile, 293.15 K",0.00449
same,solubility (mole fraction),"in acetonitrile, 295.65 K",0.00495
same,solubility (mole fraction),"in acetonitrile, 298.15 K",0.00544
same,solubility (mole fraction),"in acetonitrile, 300.65 K",0.00596
same,solubility (mole fraction),"in acetonitrile, 303.15 K",0.00653
same,solubility (mole fraction),"in acetonitrile, 305.65 K",0.00709
same,solubility (mole fraction),"in acetonitrile, 308.15 K",0.00776
same,solubility (mole fraction),"in acetonitrile, 310.65 K",0.00846
same,solubility (mole fraction),"in acetonitrile, 313.15 K",0.00916
same,solubility (mole fraction),"in acetonitrile, 315.65 K",0.01
same,solubility (mole fraction),"in acetonitrile, 318.15 K",0.011
same,solubility (mole fraction),"in ethanol, 278.15 K",0.00749
same,solubility (mole fraction),"in ethanol, 280.65 K",0.0081
same,solubility (mole fraction),"in ethanol, 283.15 K",0.00885
same,solubility (mole fraction),"in ethanol, 285.65 K",0.00979
same,solubility (mole fraction),"in ethanol, 288.15 K",0.0107
same,solubility (mole fraction),"in ethanol, 290.65 K",0.0117
same,solubility (mole fraction),"in ethanol, 293.15 K",0.0128
same,solubility (mole fraction),"in ethanol, 295.65 K",0.0138
same,solubility (mole fraction),"in ethanol, 298.15 K",0.0149
same,solubility (mole fraction),"in ethanol, 300.65 K",0.016
same,solubility (mole fraction),"in ethanol, 303.15 K",0.0173
same,solubility (mole fraction),"in ethanol, 305.65 K",0.0185
same,solubility (mole fraction),"in ethanol, 308.15 K",0.02
same,solubility (mole fraction),"in ethanol, 310.65 K",0.0214
same,solubility (mole fraction),"in ethanol, 313.15 K",0.0229
same,solubility (mole fraction),"in ethanol, 315.65 K",0.0246
same,solubility (mole fraction),"in ethanol, 318.15 K",0.0265
same,solubility (mole fraction),"in ethyl acetate, 278.15 K",0.00783
same,solubility (mole fraction),"in ethyl acetate, 280.65 K",0.00895
same,solubility (mole fraction),"in ethyl acetate, 283.15 K",0.0104
same,solubility (mole fraction),"in ethyl acetate, 285.65 K",0.0118
same,solubility (mole fraction),"in ethyl acetate, 288.15 K",0.0133
same,solubility (mole fraction),"in ethyl acetate, 290.65 K",0.0153
same,solubility (mole fraction),"in ethyl acetate, 293.15 K",0.0175
same,solubility (mole fraction),"in ethyl acetate, 295.65 K",0.0201
same,solubility (mole fraction),"in ethyl acetate, 298.15 K",0.0228
same,solubility (mole fraction),"in ethyl acetate, 300.65 K",0.0255
same,solubility (mole fraction),"in ethyl acetate, 303.15 K",0.029
same,solubility (mole fraction),"in ethyl acetate, 305.65 K",0.0324
same,solubility (mole fraction),"in ethyl acetate, 308.15 K",0.0359
same,solubility (mole fraction),"in ethyl acetate, 310.65 K",0.0395
same,solubility (mole fraction),"in ethyl acetate, 313.15 K",0.0444
same,solubility (mole fraction),"in ethyl acetate, 315.65 K",0.0497
same,solubility (mole fraction),"in ethyl acetate, 318.15 K",0.0552
same,solubility (mole fraction),"in isopropanol, 278.15 K",0.00707
same,solubility (mole fraction),"in isopropanol, 280.65 K",0.00766
same,solubility (mole fraction),"in isopropanol, 283.15 K",0.00835
same,solubility (mole fraction),"in isopropanol, 285.65 K",0.00912
same,solubility (mole fraction),"in isopropanol, 288.15 K",0.00985
same,solubility (mole fraction),"in isopropanol, 290.65 K",0.0108
same,solubility (mole fraction),"in isopropanol, 293.15 K",0.0117
same,solubility (mole fraction),"in isopropanol, 295.65 K",0.0127
same,solubility (mole fraction),"in isopropanol, 298.15 K",0.0138
same,solubility (mole fraction),"in isopropanol, 300.65 K",0.0149
same,solubility (mole fraction),"in isopropanol, 303.15 K",0.0161
same,solubility (mole fraction),"in isopropanol, 305.65 K",0.0173
same,solubility (mole fraction),"in isopropanol, 308.15 K",0.0185
same,solubility (mole fraction),"in isopropanol, 310.65 K",0.0197
same,solubility (mole fraction),"in isopropanol, 313.15 K",0.021
same,solubility (mole fraction),"in isopropanol, 315.65 K",0.0225
same,solubility (mole fraction),"in isopropanol, 318.15 K",0.0242
same,solubility (mole fraction),"in n-butanol, 278.15 K",0.0134
same,solubility (mole fraction),"in n-butanol, 280.65 K",0.0141
same,solubility (mole fraction),"in n-butanol, 283.15 K",0.0151
same,solubility (mole fraction),"in n-butanol, 285.65 K",0.0162
same,solubility (mole fraction),"in n-butanol, 288.15 K",0.0173
same,solubility (mole fraction),"in n-butanol, 290.65 K",0.0184
same,solubility (mole fraction),"in n-butanol, 293.15 K",0.0198
same,solubility (mole fraction),"in n-butanol, 295.65 K",0.0211
same,solubility (mole fraction),"in n-butanol, 298.15 K",0.0224
same,solubility (mole fraction),"in n-butanol, 300.65 K",0.0238
same,solubility (mole fraction),"in n-butanol, 303.15 K",0.0251
same,solubility (mole fraction),"in n-butanol, 305.65 K",0.0266
same,solubility (mole fraction),"in n-butanol, 308.15 K",0.0279
same,solubility (mole fraction),"in n-butanol, 310.65 K",0.0295
same,solubility (mole fraction),"in n-butanol, 313.15 K",0.0308
same,solubility (mole fraction),"in n-butanol, 315.65 K",0.0324
same,solubility (mole fraction),"in n-butanol, 318.15 K",0.0341
same,solubility (mole fraction),"in n-propanol, 278.15 K",0.0124
same,solubility (mole fraction),"in n-propanol, 280.65 K",0.0131
same,solubility (mole fraction),"in n-propanol, 283.15 K",0.0139
same,solubility (mole fraction),"in n-propanol, 285.65 K",0.0146
same,solubility (mole fraction),"in n-propanol, 288.15 K",0.0155
same,solubility (mole fraction),"in n-propanol, 290.65 K",0.0163
same,solubility (mole fraction),"in n-propanol, 293.15 K",0.0172
same,solubility (mole fraction),"in n-propanol, 295.65 K",0.0182
same,solubility (mole fraction),"in n-propanol, 298.15 K",0.0192
same,solubility (mole fraction),"in n-propanol, 300.65 K",0.0203
same,solubility (mole fraction),"in n-propanol, 303.15 K",0.0215
same,solubility (mole fraction),"in n-propanol, 305.65 K",0.0228
same,solubility (mole fraction),"in n-propanol, 308.15 K",0.0241
same,solubility (mole fraction),"in n-propanol, 310.65 K",0.0253
same,solubility (mole fraction),"in n-propanol, 313.15 K",0.0265
same,solubility (mole fraction),"in n-propanol, 315.65 K",0.0278
same,solubility (mole fraction),"in n-propanol, 318.15 K",0.0291
same,solubility (mole fraction),"in toluene, 278.15 K",0.0416
same,solubility (mole fraction),"in toluene, 280.65 K",0.0426
same,solubility (mole fraction),"in toluene, 283.15 K",0.0437
same,solubility (mole fraction),"in toluene, 285.65 K",0.045
same,solubility (mole fraction),"in toluene, 288.15 K",0.0462
same,solubility (mole fraction),"in toluene, 290.65 K",0.0473
same,solubility (mole fraction),"in toluene, 293.15 K",0.0484
same,solubility (mole fraction),"in toluene, 295.65 K",0.0496
same,solubility (mole fraction),"in toluene, 298.15 K",0.0508
same,solubility (mole fraction),"in toluene, 300.65 K",0.0521
same,solubility (mole fraction),"in toluene, 303.15 K",0.0533
same,solubility (mole fraction),"in toluene, 305.65 K",0.0546
same,solubility (mole fraction),"in toluene, 308.15 K",0.0557
same,solubility (mole fraction),"in toluene, 310.65 K",0.057
same,solubility (mole fraction),"in toluene, 313.15 K",0.0584
same,solubility (mole fraction),"in toluene, 315.65 K",0.0597
same,solubility (mole fraction),"in toluene, 318.15 K",0.061

# — BigSolDB 2.1
